The target of the test is T1, PD-1/PD-L1 interaction (Homo sapiens, UniProt Q9NZQ7).
T1 construct: expressed in transfected cells; host or cells: CHO cells (aAPC-PD-L1) co-cultured with Jurkat cells overexpressing PD-1 and an NFAT-luciferase reporter
T1 sequence (Q9NZQ7 19-290): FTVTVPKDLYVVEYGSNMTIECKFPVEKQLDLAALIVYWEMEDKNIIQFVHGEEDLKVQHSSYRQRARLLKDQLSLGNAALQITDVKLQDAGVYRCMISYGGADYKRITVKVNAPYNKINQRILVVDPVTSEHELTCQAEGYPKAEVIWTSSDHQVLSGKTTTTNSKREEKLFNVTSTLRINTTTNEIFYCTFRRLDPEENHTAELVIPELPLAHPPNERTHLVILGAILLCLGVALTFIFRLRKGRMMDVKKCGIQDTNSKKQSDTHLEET
Description: PD-1/PD-L1 NFAT reporter co-culture assay. The following applies: Jurkat PD-1 NFAT-luciferase cells co-cultured with aAPC-PD-L1 CHO cells, 6 hrs at 37° C.; read-out: EC50 NFAT Luciferase. Type of test: cell-based. The procedure: PD-1/PD-L1 NEAT Reporter Assay:
Compounds were tested in afunctional co-culture reporter assay in which TCR-mediated NFAT activity is inhibited by the engagement of PD-1 with PD-L1. […] CHO cells expressing surface-bound anti-CD3 antibodies and PD-L1 (artificial antigen presenting cells, aAPC-PD-L1) were first seeded overnight. Jurkat cells overexpressing PD-1 and expressing a luciferase construct under NFAT control are diluted in RPMI assay medium (RPMI 1640 with 2% FBS), mixed with compounds, and immediately seeded on the monolayer of aAPC-PD-L1. The co-culture is then incubated for 6 hrs at 37° C. Luciferase activity is assessed by adding the ONE-Glo reagent and measuring luminescence with a plate reader. EC50 values are calculated from the fit of the dose-response curves to a four-parameter equation (Table 3).
`COc1nc(OCc2cccc(-c3cccc(COc4nc(OC)c(CNCc5nnn[nH]5)cc4Cl)c3C)c2C)c(Cl)cc1CNCc1nnn[nH]1` [Example 169, 1,1′-((((2,2′-dimethyl-[1,1′-biphenyl]-3,3′-diyl)bis(methylene))bis(oxy))bis(5-chloro-2-methoxypyridine-6,3-diyl))bis(N-((1H-tetrazol-5-yl)methyl)methanamine)]: the EC50 worked out at 225 nM.

For the compound `Cc1c(COc2cc(OCc3cncc(C#N)c3)c(CN3CC[C@H]3CO)cc2Br)cccc1-c1cccc(COc2cc(OCc3cncc(C#N)c3)c(CN3CC[C@H]3CO)cc2Br)c1C` [Example 260, 5,5′-((((((2,2′-dimethyl-[1,1′-biphenyl]-3,3′-diyl)bis(methylene))bis(oxy))bis(4-bromo-6-(((S)-2-(hydroxymethyl)azetidin-1-yl)methyl)-3,1-phenylene))bis(oxy))bis(methylene))dinicotinonitrile], the EC50 came out at 463 nM.

Regarding `COc1nc(OCc2cccc(-c3cccc(COc4nc(OC)c(CNCC(=O)NS(C)(=O)=O)cc4Cl)c3C)c2C)c(Cl)cc1CNCC(=O)NS(C)(=O)=O` [Example 168, 2,2′-((((((2,2′-Dimethyl-[1,1′-biphenyl]-3,3′-diyl)bis(methylene))bis(oxy))bis(5-chloro-2-methoxypyridine-6,3-diyl))bis(methylene))bis(azanediyl))bis(N-(methylsulfonyl)acetamide)], the EC50 came out at 308 nM.

Consider `COc1nc(OCc2cccc(-c3cccc(COc4ccc(CNC[C@@H](O)CC(=O)O)c(OC)n4)c3F)c2C)ccc1CNC[C@@H](O)CC(=O)O` [Example 285, (3S,3′S)-4,4′-((((((2-fluoro-2′-methyl-[1,1′-biphenyl]-3,3′-diyl)bis(methylene))bis(oxy))bis(2-methoxypyridine-6,3-diyl))bis(methylene))bis(azanediyl))bis(3-hydroxybutanoic acid)], for which the concentration for a half-maximal effect (EC50) was found to be 9690 nM.

As for `COc1nc(OCc2cccc(-c3cccc(COc4nc(OC)c(CN[C@@H]5CONC5=O)cc4Cl)c3C)c2C)c(Cl)cc1CN[C@@H]1CONC1=O` [Example 173, (4R,4′R)-4,4′-((((((2,2′-dimethyl-[1,1′-biphenyl]-3,3′-diyl)bis(methylene))bis(oxy))bis(5-chloro-2-methoxypyridine-6,3-diyl))bis(methylene))bis(azanediyl))bis(isoxazolidin-3-one)], the EC50 is ≥ 50000 nM.

In the case of `COc1nc(OCc2cccc(-c3cccc(COc4nc(OC)c(CN[C@H]5CCC[C@@H]5O)cc4Cl)c3C)c2C)c(Cl)cc1CN[C@H]1CCC[C@@H]1O` [Example 230, (1S,1′S,2S,2′S)-2,2′-((((((2,2′-dimethyl-[1,1′-biphenyl]-3,3′-diyl)bis(methylene))bis(oxy))bis(5-chloro-2-methoxypyridine-6,3-diyl))bis(methylene))bis(azanediyl))bis(cyclopentan-1-ol)], the 50% effective concentration (EC50) was 821 nM.

As to `COc1nc(OCc2cccc(-c3cccc(COc4nc(OC)c(CN5CC[C@H](O)C5)cc4Br)c3C)c2C)c(Br)cc1CN1CC[C@H](O)C1` [Example 244, (3S,3′S)-1,1′-(((((2,2′-dimethyl-[1,1′-biphenyl]-3,3′-diyl)bis(methylene))bis(oxy))bis(5-bromo-2-methoxypyridine-6,3-diyl))bis(methylene))bis(pyrrolidin-3-ol)], the concentration giving a half-maximal response (EC50) came out at 390 nM.

`COc1nc(OCc2cccc(-c3cccc(COc4nc(OC)c(CNC(C)(C)C(=O)O)cc4Cl)c3C)c2C)c(Cl)cc1CN` [Example 96, 2-(((6-((3′-(((5-(aminomethyl)-3-chloro-6-methoxypyridin-2-yl)oxy)methyl)-2,2′-dimethyl-[1,1′-biphenyl]-3-yl)methoxy)-5-chloro-2-methoxypyridin-3-yl)methyl)amino)-2-methylpropanoic acid]: the EC50 is 912 nM.

As to `COC(=O)[C@@H](C)NCc1cc(Cl)c(OCc2cccc(-c3cccc(COc4nc(OC)c(CN[C@H](C)C(=O)OC)cc4Cl)c3C)c2C)nc1OC` [Example 89, Dimethyl 2,2′-((((((2,2′-dimethyl-[1,1′-biphenyl]-3,3′-diyl)bis(methylene))bis(oxy))bis(5-chloro-2-methoxypyridine-6,3-diyl))bis(methylene))bis(azanediyl))(2R,2′R)-dipropionate], the concentration giving a half-maximal response (EC50) is 670 nM.

On to `COc1nc(OCc2cccc(-c3cccc(COc4nc(OC)c(CN5CC[C@@H](O)C5)cc4Br)c3C)c2C)c(Br)cc1CN1CC[C@@H](O)C1` [Example 247, (3R,3′R)-1,1′-(((((2,2′-dimethyl-[1,1′-biphenyl]-3,3′-diyl)bis(methylene))bis(oxy))bis(5-bromo-2-methoxypyridine-6,3-diyl))bis(methylene))bis(pyrrolidin-3-ol)], for which the EC50 came out at 776 nM.

Consider `Cc1c(COc2cc(OCc3cncc(C#N)c3)c(CNCC(C)(O)CC(=O)O)cc2Cl)cccc1-c1cccc(COc2cc(OCc3cncc(C#N)c3)c(CNCC(C)(O)CC(=O)O)cc2Cl)c1C` (stereo not drawn) [Example 218, 4,4′-((((((2,2′-dimethyl-[1,1′-biphenyl]-3,3′-diyl)bis(methylene))bis(oxy))bis(5-chloro-2-((5-cyanopyridin-3-yl)methoxy)-4,1-phenylene))bis(methylene))bis(azanediyl))bis(3-hydroxy-3-methylbutanoic acid)], for which the EC50 was 680 nM.

On to `COc1nc(OCc2cccc(-c3cccc(COc4nc(OC)c(CN5CCOC(C(=O)O)C5)cc4Cl)c3C)c2C)c(Cl)cc1CN1CCOC(C(=O)O)C1` (stereo not drawn) [Example 235], for which the EC50 is ≥ 50000 nM.

For the compound `CNC(=O)[C@H](C)NCc1cc(Cl)c(OCc2cccc(-c3cccc(COc4nc(OC)c(CN[C@@H](C)C(=O)NC)cc4Cl)c3C)c2C)nc1OC` [Example 88, (2S,2′S)-2,2′-((((((2,2′-dimethyl-[1,1′-biphenyl]-3,3′-diyl)bis(methylene))bis(oxy))bis(5-chloro-2-methoxypyridine-6,3-diyl))bis(methylene))bis(azanediyl))bis(N-methylpropanamide)], the concentration for a half-maximal effect (EC50) was 4150 nM.

As for `Cc1c(COc2cc(OCc3cncc(C#N)c3)c(CN3CCCC[C@H]3C(=O)O)cc2Cl)cccc1-c1cccc(COc2cc(OCc3cncc(C#N)c3)c(CN3CCCC[C@H]3C(=O)O)cc2Cl)c1C` [Example 53, (2S,2′S)-1,1′-(((((2,2′-dimethyl-[1,1′-biphenyl]-3,3′-diyl)bis(methylene))bis(oxy))bis(5-chloro-2-((5-cyanopyridin-3-yl)methoxy)-4,1-phenylene))bis(methylene))bis(piperidine-2-carboxylic acid)], the EC50 stood at 722 nM.

For `COc1nc(OCc2cccc(-c3cccc(COc4nc(OC)c(CNC5(C(=O)O)COC5)cc4Cl)c3C)c2C)c(Cl)cc1CNC1(C(=O)O)COC1` [Example 87, 3,3′-((((((2,2′-dimethyl-[1,1′-biphenyl]-3,3′-diyl)bis(methylene))bis(oxy))bis(5-chloro-2-methoxypyridine-6,3-diyl))bis(methylene))bis(azanediyl))bis(oxetane-3-carboxylic acid)], the EC50 was ≥ 50000 nM.

As to `COc1nc(OCc2cccc(-c3cccc(COc4nc(OC)c(CNC(C)(C)CC(=O)O)cc4Cl)c3C)c2C)c(Cl)cc1CNC(C)(C)CC(=O)O` [Example 82, 3,3′-((((((2,2′-dimethyl-[1,1′-biphenyl]-3,3′-diyl)bis(methylene))bis(oxy))bis(5-chloro-2-methoxypyridine-6,3-diyl))bis(methylene))bis(azanediyl))bis(3-methylbutanoic acid)], the EC50 is 1710 nM.

For the compound `COc1nc(OCc2cccc(-c3cccc(COc4nc(OC)c(CN[C@@H]5CCC[C@@H]5O)cc4Cl)c3C)c2C)c(Cl)cc1CN[C@@H]1CCC[C@@H]1O` [Example 227, (1S,1′S,2R,2′R)-2,2′-((((((2,2′-dimethyl-[1,1′-biphenyl]-3,3′-diyl)bis(methylene))bis(oxy))bis(5-chloro-2-methoxypyridine-6,3-diyl))bis(methylene))bis(azanediyl))bis(cyclopentan-1-ol)], the EC50 is 615 nM.

In the case of `COc1nc(OCc2cccc(-c3cccc(COc4nc(OC)c(C5COCCN5)cc4Br)c3C)c2C)c(Br)cc1C1COCCN1` (stereo not drawn) [Example 249, 3,3′-((((2,2′-dimethyl-[1,1′-biphenyl]-3,3′-diyl)bis(methylene))bis(oxy))bis(5-bromo-2-methoxypyridine-6,3-diyl))dimorpholine], the EC50 is ≥ 50000 nM.

On to `COc1nc(OCc2cccc(-c3cccc(COc4nc(OC)c(CNC(C)C(=O)N(C)C)cc4Cl)c3C)c2C)c(Cl)cc1CNC(C)C(=O)N(C)C` (stereo not drawn) [Example 83, 2,2′-((((((2,2′-dimethyl-[1,1′-biphenyl]-3,3′-diyl)bis(methylene))bis(oxy))bis(5-chloro-2-methoxypyridine-6,3-diyl))bis(methylene))bis(azanediyl))bis(N,N-dimethylpropanamide)], for which the EC50 was determined as 1680 nM.

On to `COC(=O)[C@H](C)NCc1cc(Cl)c(OCc2cccc(-c3cccc(COc4nc(OC)c(CN[C@@H](C)C(=O)OC)cc4Cl)c3C)c2C)nc1OC` [Example 100, Dimethyl 2,2′-((((((2,2′-dimethyl-[1,1′-biphenyl]-3,3′-diyl)bis(methylene))bis(oxy))bis(5-chloro-2-methoxypyridine-6,3-diyl))bis(methylene))bis(azanediyl))(2S,2′S)-dipropionate], for which the EC50 was 482 nM.

As to `COc1nc(OCc2cccc(-c3cccc(COc4nc(OC)c(CN[C@@H](C)C(=O)O)cc4Cl)c3C)c2C)c(Cl)cc1CN[C@@H](C)C(=O)O` [Example 98, (2S,2′S)-2,2′-((((((2,2′-dimethyl-[1,1′-biphenyl]-3,3′-diyl)bis(methylene))bis(oxy))bis(5-chloro-2-methoxypyridine-6,3-diyl))bis(methylene))bis(azanediyl))dipropionic acid], the EC50 came out at 70 nM.

(Values after patent US12590062B2, “PD-1/PD-L1 inhibitors” (Gilead Sciences, Inc., priority 2017, dated 2026).)
